Data published in PubChem BioAssay AID1745844 (Carcinogenic Potency Database (CPDB), 2022).

Tested on: rodent lifetime carcinogenesis bioassay, tumor incidence TD50
Assay: chronic cancer bioassays in animals – CPDB, compiled studies (AID 1745844)

Oc1ccc2c(c1)OCO2
TD50 (mouse, strain B6C3F1, females, in feed, site: forestomach, lesion: sarcoma, dosed 96 weeks, study length 96 weeks): 44800 mg/kg/day
TD50 (mouse, strain B6C3F1, females, in feed, site: forestomach, lesion: squamous-cell carcinoma, dosed 96 weeks, study length 96 weeks): 8330 mg/kg/day
TD50 (mouse, strain B6C3F1, females, in feed, site: liver, lesion: hyperplastic nodule, dosed 96 weeks, study length 96 weeks): 44800 mg/kg/day
TD50 (mouse, strain B6C3F1, males, in feed, site: forestomach, lesion: squamous-cell carcinoma, dosed 96 weeks, study length 96 weeks): 3070 mg/kg/day
TD50 (mouse, strain B6C3F1, males, in feed, site: lung, lesion: adenoma, dosed 96 weeks, study length 96 weeks): 41300 mg/kg/day
TD50 (mouse, strain B6C3F1, males, in feed, site: stomach, glandular, lesion: sarcoma, dosed 96 weeks, study length 96 weeks): 41300 mg/kg/day
TD50 (rat, strain F344/DuCrj, females, in feed, site: forestomach, lesion: papilloma, dosed 104 weeks, study length 104 weeks): 1090 mg/kg/day
TD50 (rat, strain F344/DuCrj, females, in feed, site: forestomach, lesion: squamous-cell carcinoma, dosed 104 weeks, study length 104 weeks): 6500 mg/kg/day
TD50 (rat, strain F344/DuCrj, males, in feed, site: forestomach, lesion: papilloma, dosed 104 weeks, study length 104 weeks): 1350 mg/kg/day
TD50 (rat, strain F344/DuCrj, males, in feed, site: forestomach, lesion: several types, types named in the paper, dosed 60 weeks, study length 60 weeks): 708 mg/kg/day
TD50 (rat, strain F344/DuCrj, males, in feed, site: forestomach, lesion: squamous-cell carcinoma, dosed 60 weeks, study length 60 weeks): 3920 mg/kg/day
TD50 (rat, strain F344/DuCrj, males, in feed, site: forestomach, lesion: squamous-cell carcinoma, dosed 104 weeks, study length 104 weeks): 1540 mg/kg/day
TD50 (rat, strain F344/DuCrj, males, in feed, site: forestomach, lesion: squamous-cell papilloma, dosed 60 weeks, study length 60 weeks): 909 mg/kg/day
TD50 (rat, strain F344/DuCrj, males, in feed, site: stomach, glandular, lesion: adenoma, dosed 104 weeks, study length 104 weeks): 16200 mg/kg/day

C=C(C)CCl
TD50 (mouse, strain B6C3F1, females, by gavage, site: any site (literature study), lesion: several types, types named in the paper, dosed 103 weeks, study length 105 weeks): 149 mg/kg/day
TD50 (mouse, strain B6C3F1, females, by gavage, site: forestomach, lesion: squamous-cell carcinoma + squamous-cell papilloma, dosed 103 weeks, study length 105 weeks): 82.3 mg/kg/day
TD50 (mouse, strain B6C3F1, females, by gavage, site: forestomach, lesion: squamous-cell papilloma, dosed 103 weeks, study length 105 weeks): 87.7 mg/kg/day
TD50 (mouse, strain B6C3F1, females, by gavage, site: lung, lesion: alveolar/bronchiolar adenoma + alveolar/bronchiolar carcinoma, dosed 103 weeks, study length 105 weeks): 5180 mg/kg/day
TD50 (mouse, strain B6C3F1, males, by gavage, site: any site (literature study), lesion: several types, types named in the paper, dosed 103 weeks, study length 105 weeks): 402 mg/kg/day
TD50 (mouse, strain B6C3F1, males, by gavage, site: forestomach, lesion: squamous-cell carcinoma + squamous-cell papilloma, dosed 103 weeks, study length 105 weeks): 73.5 mg/kg/day
TD50 (mouse, strain B6C3F1, males, by gavage, site: forestomach, lesion: squamous-cell carcinoma, dosed 103 weeks, study length 105 weeks): 432 mg/kg/day
TD50 (mouse, strain B6C3F1, males, by gavage, site: forestomach, lesion: squamous-cell papilloma, dosed 103 weeks, study length 105 weeks): 96.2 mg/kg/day
TD50 (mouse, strain BDF1, females, inhaled, site: Harderian gland, lesion: adenoma, dosed 104 weeks, study length 104 weeks): 665 mg/kg/day
TD50 (mouse, strain BDF1, females, inhaled, site: forestomach, lesion: squamous-cell papilloma, dosed 104 weeks, study length 104 weeks): 1850 mg/kg/day
TD50 (mouse, strain BDF1, females, inhaled, site: liver, lesion: hepatocellular carcinoma, dosed 104 weeks, study length 104 weeks): 60000 mg/kg/day
TD50 (mouse, strain BDF1, females, inhaled, site: lung, lesion: alveolar/bronchiolar carcinoma, dosed 104 weeks, study length 104 weeks): 6750 mg/kg/day
TD50 (mouse, strain BDF1, males, inhaled, site: forestomach, lesion: squamous-cell carcinoma, dosed 104 weeks, study length 104 weeks): 11500 mg/kg/day
TD50 (mouse, strain BDF1, males, inhaled, site: forestomach, lesion: squamous-cell papilloma, dosed 104 weeks, study length 104 weeks): 2040 mg/kg/day
TD50 (mouse, strain BDF1, males, inhaled, site: lung, lesion: alveolar/bronchiolar adenoma, dosed 104 weeks, study length 104 weeks): 1020 mg/kg/day
TD50 (mouse, strain BDF1, males, inhaled, site: lung, lesion: alveolar/bronchiolar carcinoma, dosed 104 weeks, study length 104 weeks): 1570 mg/kg/day
TD50 (rat, strain Fischer 344, females, by gavage, site: any site (literature study), lesion: several types, types named in the paper, dosed 103 weeks, study length 105 weeks): 323 mg/kg/day
TD50 (rat, strain Fischer 344, females, by gavage, site: forestomach, lesion: papilloma, NOS, dosed 103 weeks, study length 105 weeks): 320 mg/kg/day
TD50 (rat, strain Fischer 344, females, by gavage, site: subcutaneous tissue, lesion: fibroma, dosed 103 weeks, study length 105 weeks): 524 mg/kg/day
TD50 (rat, strain Fischer 344, males, by gavage, site: any site (literature study), lesion: several types, types named in the paper, dosed 103 weeks, study length 105 weeks): 109 mg/kg/day
TD50 (rat, strain Fischer 344, males, by gavage, site: forestomach, lesion: papilloma, NOS, dosed 103 weeks, study length 105 weeks): 68.7 mg/kg/day
TD50 (rat, strain Fischer 344, males, by gavage, site: liver, lesion: hepatocellular adenoma + hepatocellular carcinoma + neoplastic nodule, dosed 103 weeks, study length 105 weeks): 714 mg/kg/day
TD50 (rat, strain Fischer 344, males, by gavage, site: testis, lesion: interstitial-cell tumor, dosed 103 weeks, study length 105 weeks): 54 mg/kg/day

ClC(Cl)=C(Cl)Cl
TD50 (mouse, strain B6C3F1, females, by gavage, site: any site (literature study), lesion: several types, types named in the paper, dosed 78 weeks, study length 90 weeks): 98.1 mg/kg/day
TD50 (mouse, strain B6C3F1, females, by gavage, site: liver, lesion: hepatocellular adenoma + hepatocellular carcinoma + neoplastic nodule, dosed 78 weeks, study length 90 weeks): 75.6 mg/kg/day
TD50 (mouse, strain B6C3F1, females, by gavage, site: liver, lesion: hepatocellular carcinoma, dosed 78 weeks, study length 90 weeks): 75.6 mg/kg/day
TD50 (mouse, strain B6C3F1, females, by gavage, site: lung, lesion: alveolar/bronchiolar adenoma + alveolar/bronchiolar carcinoma, dosed 78 weeks, study length 90 weeks): 2950 mg/kg/day
TD50 (mouse, strain B6C3F1, females, inhaled, site: any site (literature study), lesion: several types, types named in the paper, dosed 103 weeks, study length 104 weeks): 211 mg/kg/day
TD50 (mouse, strain B6C3F1, females, inhaled, site: liver, lesion: hepatocellular adenoma + hepatocellular carcinoma + neoplastic nodule, dosed 103 weeks, study length 104 weeks): 188 mg/kg/day
TD50 (mouse, strain B6C3F1, females, inhaled, site: liver, lesion: hepatocellular adenoma + hepatocellular carcinoma, dosed 103 weeks, study length 104 weeks): 188 mg/kg/day
TD50 (mouse, strain B6C3F1, females, inhaled, site: liver, lesion: hepatocellular carcinoma, dosed 103 weeks, study length 104 weeks): 200 mg/kg/day
TD50 (mouse, strain B6C3F1, males, by gavage, site: any site (literature study), lesion: several types, types named in the paper, dosed 78 weeks, study length 90 weeks): 160 mg/kg/day
TD50 (mouse, strain B6C3F1, males, by gavage, site: liver, lesion: hepatocellular adenoma + hepatocellular carcinoma + neoplastic nodule, dosed 78 weeks, study length 90 weeks): 123 mg/kg/day
TD50 (mouse, strain B6C3F1, males, by gavage, site: liver, lesion: hepatocellular carcinoma, dosed 78 weeks, study length 90 weeks): 123 mg/kg/day
TD50 (mouse, strain B6C3F1, males, inhaled, site: any site (literature study), lesion: several types, types named in the paper, dosed 103 weeks, study length 104 weeks): 225 mg/kg/day
TD50 (mouse, strain B6C3F1, males, inhaled, site: liver, lesion: hepatocellular adenoma + hepatocellular carcinoma + neoplastic nodule, dosed 103 weeks, study length 104 weeks): 190 mg/kg/day
TD50 (mouse, strain B6C3F1, males, inhaled, site: liver, lesion: hepatocellular adenoma + hepatocellular carcinoma, dosed 103 weeks, study length 104 weeks): 190 mg/kg/day
TD50 (mouse, strain B6C3F1, males, inhaled, site: liver, lesion: hepatocellular adenoma, dosed 103 weeks, study length 104 weeks): 668 mg/kg/day
TD50 (mouse, strain B6C3F1, males, inhaled, site: liver, lesion: hepatocellular carcinoma, dosed 103 weeks, study length 104 weeks): 162 mg/kg/day
TD50 (mouse, strain B6C3F1, males, inhaled, site: lung, lesion: alveolar/bronchiolar adenoma + alveolar/bronchiolar carcinoma, dosed 103 weeks, study length 104 weeks): 6050 mg/kg/day
TD50 (mouse, strain B6C3F1, males, inhaled, site: mesenteric lymph node + multiple organs + spleen + subcutaneous tissue, lesion: malignant lymphoma, NOS, dosed 103 weeks, study length 104 weeks): 681 mg/kg/day
TD50 (mouse, strain Crj:BDF1, females, inhaled, site: liver, lesion: hepatocellular adenoma, dosed 104 weeks, study length 104 weeks): 560 mg/kg/day
TD50 (mouse, strain Crj:BDF1, females, inhaled, site: liver, lesion: hepatocellular carcinoma, dosed 104 weeks, study length 104 weeks): 1420 mg/kg/day
TD50 (mouse, strain Crj:BDF1, females, inhaled, site: liver, lesion: several types, types named in the paper, dosed 104 weeks, study length 104 weeks): 396 mg/kg/day
TD50 (mouse, strain Crj:BDF1, males, inhaled, site: Harderian gland, lesion: adenoma, dosed 104 weeks, study length 104 weeks): 2330 mg/kg/day
TD50 (mouse, strain Crj:BDF1, males, inhaled, site: liver, lesion: hepatocellular adenoma, dosed 104 weeks, study length 104 weeks): 602 mg/kg/day
TD50 (mouse, strain Crj:BDF1, males, inhaled, site: liver, lesion: hepatocellular carcinoma, dosed 104 weeks, study length 104 weeks): 555 mg/kg/day
TD50 (mouse, strain Crj:BDF1, males, inhaled, site: liver, lesion: several types, types named in the paper, dosed 104 weeks, study length 104 weeks): 257 mg/kg/day
TD50 (rat, strain F344/DuCrj, females, inhaled, site: spleen, lesion: mononuclear-cell leukemia, dosed 104 weeks, study length 104 weeks): 1080 mg/kg/day
TD50 (rat, strain F344/DuCrj, males, inhaled, site: liver, lesion: hepatocellular adenoma, dosed 104 weeks, study length 104 weeks): 28300 mg/kg/day
TD50 (rat, strain F344/DuCrj, males, inhaled, site: spleen, lesion: mononuclear-cell leukemia, dosed 104 weeks, study length 104 weeks): 257 mg/kg/day
TD50 (rat, strain Fischer 344, females, inhaled, site: any site (literature study), lesion: several types, types named in the paper, dosed 103 weeks, study length 104 weeks): 869 mg/kg/day
TD50 (rat, strain Fischer 344, females, inhaled, site: multiple organs + spleen, lesion: mononuclear-cell leukemia, dosed 103 weeks, study length 104 weeks): 287 mg/kg/day
TD50 (rat, strain Fischer 344, males, inhaled, site: any site (literature study), lesion: several types, types named in the paper, dosed 103 weeks, study length 104 weeks): 77.7 mg/kg/day
TD50 (rat, strain Fischer 344, males, inhaled, site: kidney + liver + multiple organs + spleen, lesion: tubular-cell adenoma + tubular-cell adenocarcinoma + mononuclear-cell leukemia, dosed 103 weeks, study length 104 weeks): 90.8 mg/kg/day
TD50 (rat, strain Fischer 344, males, inhaled, site: kidney, lesion: tubular-cell adenoma + tubular-cell adenocarcinoma, dosed 103 weeks, study length 104 weeks): 504 mg/kg/day
TD50 (rat, strain Fischer 344, males, inhaled, site: liver + multiple organs + spleen, lesion: mononuclear-cell leukemia, dosed 103 weeks, study length 104 weeks): 101 mg/kg/day
TD50 (rat, strain Fischer 344, males, inhaled, site: liver, lesion: hepatocellular adenoma + hepatocellular carcinoma + neoplastic nodule, dosed 103 weeks, study length 104 weeks): 368 mg/kg/day
TD50 (rat, strain Fischer 344, males, inhaled, site: testis, lesion: interstitial-cell tumor, dosed 103 weeks, study length 104 weeks): 68.6 mg/kg/day
TD50 (rat, strain Osborne-Mendel, females, by gavage, site: any site (literature study), lesion: several types, types named in the paper, dosed 78 weeks, study length 110 weeks): 1710 mg/kg/day
TD50 (rat, strain Osborne-Mendel, males, by gavage, site: any site (literature study), lesion: several types, types named in the paper, dosed 78 weeks, study length 112 weeks): 3020 mg/kg/day
